Data published in ChEMBL document CHEMBL2390853, “The products of the reaction between 6-amine-1,3-dimethyl uracil and bis-chalcones induce cytotoxicity with massive vacuolation in HeLa cervical cancer cell line” (Eur J Med Chem, 2013).
The source made the active and inactive calls. No cut-off for these calls is given here.

Legend:
[1] = Cytotoxicity against human CALO cells assessed as growth inhibition after 48 hrs by MTT assay; assay type: functional, cell-based
HeLa [2] = assay: Induction of apoptosis in human HeLa cells assessed as change in p53 expression at 2.5 to 15 uM after 24 hrs by Western blot analysis; assay type: functional, cell-based
HeLa [3] = assay: Induction of autophagy in human HeLa cells assessed as large vacuole formation at 13 uM after 24 hrs by inverted microscopic analysis in presence of spautin-1; assay type: functional, cell-based
HeLa [4] = assay: Induction of necrosis in human HeLa cells assessed as inhibition of cell viability at 13 uM after 24 to 48 hrs by tryphan blue exclusion assay; assay type: functional, cell-based
HeLa [5] = assay: Induction of cytoplasmic vacuolation in human HeLa cells at 13 uM after 24 hrs by neutral red staining-based light microscopic analysis; assay type: functional, cell-based
HeLa [6] = assay: Induction of autophagy in human HeLa cells assessed as increase in conversion of LC3B-1 to LC3B-2 at 13 uM after 24 hrs by Western blot analysis; assay type: functional, cell-based
K562 [7] = assay: Cytotoxicity against human K562 cells assessed as growth inhibition after 48 hrs by MTT assay; assay type: functional, cell-based; conditions: K562, 48 h
MCF7 [8] = assay: Cytotoxicity against human MCF7 cells assessed as growth inhibition after 48 hrs by MTT assay; assay type: functional, cell-based; conditions: MCF7, 48 h
HeLa [9] = assay: Induction of apoptosis in human HeLa cells assessed as change in procaspase-3 expression at 2.5 to 15 uM after 24 hrs by Western blot analysis; assay type: functional, cell-based
HeLa [10] = assay: Induction of necrosis in human HeLa cells at 13 uM after 24 to 48 hrs by LDH release assay; assay type: functional, cell-based
HeLa [11] = assay: Cytotoxicity against human HeLa cells assessed as growth inhibition after 48 hrs by MTT assay; assay type: functional, cell-based
HeLa [12] = assay: Cytotoxicity against human HeLa cells assessed as cell viability at 13 uM after 24 hrs by MTT assay in presence of spautin-1; assay type: functional, cell-based
[13] = Cytotoxicity against human C33 cells assessed as growth inhibition after 48 hrs by MTT assay; assay type: functional, cell-based; conditions: C33, 48 h
HeLa [14] = assay: Induction of apoptosis in human HeLa cells assessed as change in Bcl-2 expression at 2.5 to 15 uM after 24 hrs by Western blot analysis; assay type: functional, cell-based
HeLa [15] = assay: Induction of apoptosis in human HeLa cells assessed as DNA fragmentation at 13 uM after 48 hrs by TUNEL assay; assay type: functional, cell-based
HeLa [16] = assay: Induction of necrosis in human HeLa cells assessed as inhibition of cell viability at 13 uM after 24 to 48 hrs by MTT assay; assay type: functional, cell-based
HeLa [17] = assay: Cytotoxicity against human HeLa cells assessed as cell viability at 13 uM after 48 hrs by MTT assay in presence of gallic acid; assay type: functional, cell-based
HeLa [18] = assay: Induction of cytoplasmic vacuolation in human HeLa cells assessed as change in cell morphology at 13 uM after 24 hrs by hematoxylin staining-based light microscopic analysis in presence of cycloheximide; assay type: functional
SW-620 [19] = assay: Cytotoxicity against human SW620 cells assessed as growth inhibition after 48 hrs by MTT assay; assay type: functional, cell-based; conditions: SW-620, 48 h
HeLa [20] = assay: Cell cycle arrest in human HeLa cells assessed as accumulation at sub G1 phase at 13 uM after 72 hrs by propidium iodide staining-based FACS flow cytometric analysis; assay type: functional
HeLa [21] = assay: Induction of autophagy in human HeLa cells assessed as increase in conversion of LC3B-1 to LC3B-2 at 13 uM after 24 hrs by Western blot analysis in presence of spautin-1; assay type: functional, cell-based
[22] = Cytotoxicity against human HEK293Q cells assessed as growth inhibition after 48 hrs by MTT assay; assay type: cell-based
HeLa [23] = assay: Induction of apoptosis in human HeLa cells assessed as change in Bax expression at 2.5 to 15 uM after 24 hrs by Western blot analysis; assay type: functional, cell-based
HeLa [24] = assay: Cell cycle arrest in human HeLa cells assessed as effect on G2/M phase at 13 uM after 12 to 72 hrs by propidium iodide staining-based FACS flow cytometric analysis; assay type: functional
HeLa [25] = assay: Cell cycle arrest in human HeLa cells assessed as decrease in reduction in cells at S phase at 13 uM after 72 hrs by propidium iodide staining-based FACS flow cytometric analysis; assay type: functional
HeLa [26] = assay: Cell cycle arrest in human HeLa cells assessed as increase in accumulation at G1 phase at 13 uM after 48 to 72 hrs by propidium iodide staining-based FACS flow cytometric analysis; assay type: functional
SW480 [27] = assay: Cytotoxicity against human SW480 cells assessed as growth inhibition after 48 hrs by MTT assay; assay type: functional, cell-based; conditions: SW480, 48 h
HeLa [28] = assay: Induction of cytoplasmic vacuolation in human HeLa cells at 13 uM after 24 hrs by hematoxylin staining-based light microscopic analysis; assay type: functional, cell-based
HeLa [29] = assay: Induction of apoptosis in human HeLa cells assessed as DNA fragmentation at 0.25 uM after 48 hrs by TUNEL assay; assay type: functional, cell-based
HeLa [30] = assay: Induction of apoptosis in human HeLa cells; assay type: functional, cell-based
HeLa [31] = assay: Induction of apoptosis in human HeLa cells assessed as change in Bax expression at 0.25 uM after 24 hrs by Western blot analysis; assay type: functional, cell-based
HeLa [32] = assay: Cell cycle arrest in human HeLa cells assessed as accumulation at sub G1 phase at 0.25 uM after 48 to 72 hrs by propidium iodide staining-based FACS flow cytometric analysis; assay type: functional
HeLa [33] = assay: Induction of apoptosis in human HeLa cells assessed as change in p53 expression at 0.25 uM after 24 hrs by Western blot analysis; assay type: functional, cell-based
HeLa [34] = assay: Cell cycle arrest in human HeLa cells assessed as accumulation at G2/M phase at 0.25 uM after 12 hrs by propidium iodide staining-based FACS flow cytometric analysis; assay type: functional
HeLa [35] = assay: Cell cycle arrest in human HeLa cells assessed as accumulation at polyploidy region at 0.25 uM after 48 to 72 hrs by propidium iodide staining-based FACS flow cytometric analysis; assay type: functional
HeLa [36] = assay: Induction of apoptosis in human HeLa cells assessed as change in procaspase-3 expression at 0.25 uM after 24 hrs by Western blot analysis; assay type: functional, cell-based
HeLa [37] = assay: Cytotoxicity against human HeLa cells assessed as cell viability at 50 uM after 3 hrs; assay type: cell-based
HeLa [38] = assay: Induction of cytoplasmic vacuolation in human HeLa cells; assay type: functional, cell-based
HeLa [39] = assay: Induction of autophagy in human HeLa cells assessed as increase in conversion of LC3B-1 to LC3B-2 at 10 uM after 3 hrs by Western blot analysis; assay type: functional, cell-based
C33 = assay: Cytotoxicity against human C33 cells assessed as growth inhibition at 0.25 to 100 uM after 48 hrs by MTT assay; assay type: functional, cell-based
K562 [40] = assay: Cytotoxicity against human K562 cells assessed as growth inhibition at 0.25 to 100 uM after 48 hrs by MTT assay; assay type: functional, cell-based
CALO = assay: Cytotoxicity against human CALO cells assessed as growth inhibition at 0.25 to 100 uM after 48 hrs by MTT assay; assay type: functional, cell-based
HeLa [41] = assay: Cytotoxicity against human HeLa cells assessed as growth inhibition at 0.25 to 100 uM after 48 hrs by MTT assay; assay type: functional, cell-based
SW-620 [42] = assay: Cytotoxicity against human SW620 cells assessed as growth inhibition at 0.25 to 100 uM after 48 hrs by MTT assay; assay type: functional, cell-based
SW480 [43] = assay: Cytotoxicity against human SW480 cells assessed as growth inhibition at 0.25 to 100 uM after 48 hrs by MTT assay; assay type: functional, cell-based
MCF7 [44] = assay: Cytotoxicity against human MCF7 cells assessed as growth inhibition at 0.25 to 100 uM after 48 hrs by MTT assay; assay type: functional, cell-based
[45] = Cytotoxicity against human HEK293Q cells assessed as growth inhibition at 0.25 to 100 uM after 48 hrs by MTT assay; assay type: cell-based

## Cn1cccc1/C=C1\CCCc2c1nc1c(c2-c2cccn2C)c(=O)n(C)c(=O)n1C
[1]
  IC50: 13.2 µM
HeLa [2]
  Activity: inactive
HeLa [3]
  Activity: inactive
HeLa [4]
  Activity: Active
HeLa [5]
  Activity: Active
HeLa [6]
  Activity: Active
K562 [7]
  IC50: 10.4 µM
MCF7 [8]
  IC50: 9.33 µM
HeLa [9]
  Activity: inactive
HeLa [10]
  Activity: Active
HeLa [11]
  IC50: 13.1 µM
HeLa [12]
  Activity: Active
[13]
  IC50: 22.2 µM
HeLa [14]
  Activity: inactive
HeLa [15]
  Activity: inactive
HeLa [16]
  Activity: Active
HeLa [17]
  Activity: Active
HeLa [18]
  Activity: Active
SW-620 [19]
  IC50: 8.54 µM
HeLa [20]
  Activity: inactive
HeLa [21]
  Activity: inactive
[22]
  IC50: 60.1 µM
HeLa [23]
  Activity: inactive
HeLa [24]
  Activity: inactive
HeLa [25]
  Activity: Active
HeLa [26]
  Activity: Active
SW480 [27]
  IC50: 4.4 µM
HeLa [28]
  Activity: Active

## CC(=O)O[C@H]1C(=O)[C@@]2(C)[C@H]([C@H](OC(=O)c3ccccc3)[C@]3(O)C[C@H](OC(=O)[C@H](O)[C@@H](NC(=O)c4ccccc4)c4ccccc4)C(C)=C1C3(C)C)[C@]1(OC(C)=O)CO[C@@H]1C[C@@H]2O
HeLa [29]
  Activity: Active
HeLa [30]
  Activity: Active
HeLa [31]
  Activity: inactive
HeLa [32]
  Activity: Active
HeLa [33]
  Activity: inactive
HeLa [34]
  Activity: Active
HeLa [35]
  Activity: Active
HeLa [36]
  Activity: inactive

## C[C@@H]1C[C@@H]([C@H](O)CC2CC(=O)NC(=O)C2)C(=O)[C@@H](C)C1 [CYCLOHEXIMIDE]
HeLa [37]
  Activity: Non-toxic

## Cn1c(=O)c2c(-c3ccsc3)c3c(nc2n(C)c1=O)/C(=C/c1ccsc1)CCC3
[1]
  IC50: > 100 µM
K562 [7]
  IC50: > 100 µM
MCF7 [8]
  IC50: > 100 µM
HeLa [11]
  IC50: > 100 µM
[13]
  IC50: > 100 µM
SW-620 [19]
  IC50: > 100 µM
[22]
  IC50: > 100 µM
HeLa [38]
  Activity: inactive
SW480 [27]
  IC50: > 100 µM

## Fc1ccc(CNc2ncnc3ccc(F)cc23)cc1
HeLa [39]
  Activity: inactive

## Cn1c(=O)c2c(-c3ccsc3)c3c(nc2n(C)c1=O)/C(=C/c1ccsc1)COC3
C33
  growth inhibition (GI): inactive
K562 [40]
  growth inhibition (GI): inactive
CALO
  growth inhibition (GI): inactive
HeLa [41]
  growth inhibition (GI): inactive
SW-620 [42]
  growth inhibition (GI): inactive
SW480 [43]
  growth inhibition (GI): inactive
MCF7 [44]
  growth inhibition (GI): inactive
HeLa [38]
  Activity: inactive
[45]
  Activity: Non-toxic

## Cn1cccc1/C=C1\COCc2c1nc1c(c2-c2cccn2C)c(=O)n(C)c(=O)n1C
[1]
  IC50: 43.7 µM
K562 [7]
  IC50: 37.6 µM
MCF7 [8]
  IC50: 8.37 µM
HeLa [11]
  IC50: 19.6 µM
[13]
  IC50: 21.6 µM
SW-620 [19]
  IC50: 14 µM
[22]
  IC50: 67.7 µM
SW480 [27]
  IC50: 28.2 µM
